This passage reports IC50 results from patent US12662491B2 (Redona Therapeutics, Inc., priority 2020, dated 2026).

Each structure is given as a SMILES string. pIC50: −log10 of the molar value.

For one experiment, the target named is T1, Zcchc11 enzyme (Homo sapiens, UniProt Q5TAX3).
T1 construct: made in house; host or cells: HEK293 cells (Zcchc11); E. coli Rosetta II (LIN28A)
T1 sequence (Q5TAX3 212-1420): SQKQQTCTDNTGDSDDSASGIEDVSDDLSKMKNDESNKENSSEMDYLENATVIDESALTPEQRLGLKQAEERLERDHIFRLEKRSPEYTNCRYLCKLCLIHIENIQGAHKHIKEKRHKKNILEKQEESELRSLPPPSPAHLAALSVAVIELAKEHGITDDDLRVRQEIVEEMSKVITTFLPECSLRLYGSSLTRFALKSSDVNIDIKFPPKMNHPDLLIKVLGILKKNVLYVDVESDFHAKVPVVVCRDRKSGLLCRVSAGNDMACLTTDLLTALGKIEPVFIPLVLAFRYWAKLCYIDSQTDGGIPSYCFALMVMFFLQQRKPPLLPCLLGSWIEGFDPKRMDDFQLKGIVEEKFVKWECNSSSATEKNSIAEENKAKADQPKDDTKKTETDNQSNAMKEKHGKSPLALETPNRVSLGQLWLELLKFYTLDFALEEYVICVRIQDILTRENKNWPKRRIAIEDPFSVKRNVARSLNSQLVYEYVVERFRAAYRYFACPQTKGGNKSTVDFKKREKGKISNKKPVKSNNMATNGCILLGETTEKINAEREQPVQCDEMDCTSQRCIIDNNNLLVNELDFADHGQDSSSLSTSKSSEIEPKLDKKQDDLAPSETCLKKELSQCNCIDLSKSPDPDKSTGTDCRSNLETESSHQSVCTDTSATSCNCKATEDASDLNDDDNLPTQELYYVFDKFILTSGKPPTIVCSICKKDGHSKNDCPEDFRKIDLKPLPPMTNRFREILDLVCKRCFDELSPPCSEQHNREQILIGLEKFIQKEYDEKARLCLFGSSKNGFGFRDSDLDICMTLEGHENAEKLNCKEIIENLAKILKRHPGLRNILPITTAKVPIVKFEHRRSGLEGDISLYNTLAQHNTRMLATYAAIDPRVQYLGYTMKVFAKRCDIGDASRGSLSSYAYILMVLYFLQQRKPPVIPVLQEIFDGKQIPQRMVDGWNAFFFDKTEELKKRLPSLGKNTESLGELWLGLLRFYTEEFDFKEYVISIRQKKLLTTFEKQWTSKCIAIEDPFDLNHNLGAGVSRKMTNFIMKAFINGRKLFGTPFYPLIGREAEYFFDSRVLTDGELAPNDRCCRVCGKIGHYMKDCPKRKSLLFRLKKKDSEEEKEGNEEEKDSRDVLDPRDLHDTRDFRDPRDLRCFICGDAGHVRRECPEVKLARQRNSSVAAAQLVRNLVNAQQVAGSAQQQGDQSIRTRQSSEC
The experiment is described as follows: TUTase assay (Zcchc11 assay, Lin28a-dependent polyuridylation of pre-let-7). The format is biochemical. The following applies: LIN28A 10 nM, Zcchc11 0.2 nM, 5′-fluorescein pre-let-7 miRNA 2 nM, UTP 5 uM, room temperature, 30 minutes pre-incubation; read-out: Potency Lin28a-dep Z11 IC50. In short, it runs like this: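 Polyuridylation measured as fluorescein loss when a rhodamine-labelled A20 probe anneals to U-tails added to fluorescein pre-let-7 (2 nM). Reaction: truncated Zcchc11 0.2 nM, E. coli-made LIN28A 10 nM, UTP 5 uM, HEPES pH 7.3, room temperature. Initial rates fitted to four-parameter IC50.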
Regarding `CN(C[C@H]1CCCN1c1cc2c(cc1F)c(=O)c(C(=O)O)cn2-c1ccc(O)cc1)c1ncccc1Cl` [Example 10, (R)-7-(2-(((3-chloropyridin-2-yl)(methyl)amino)methyl)pyrrolidin-1-yl)-6-fluoro-1-(4-hydroxyphenyl)-4-oxo-1,4-dihydroquinoline-3-carboxylic acid], the negative logarithm of the IC50 (pIC50) is 5.00 to 6.00.

Still in this experiment, the particulars now being: Lin28a-dependent Zcchc11 (Z11) TUTase activity; read-out: Potency Lin28a-dep Z11 IC50.
Take `COc1ccc(COc2ccc(-n3cc(C(=O)O)c(=O)c4cc(F)c(N5CCC[C@@H]5COc5ncccn5)cc43)c(F)c2)cc1` [Compound 137, (R)-6-fluoro-1-(2-fluoro-4-((4-methoxy-benzyl)oxy)phenyl)-4-oxo-7-(2-((pyrimidin-2-yloxy)methyl)pyrrolidin-1-yl)-1,4-dihydro-quinoline-3-carboxylic acid]: the negative-log IC50 (pIC50) was not below 6.00. As to `Cc1ccccc1OC[C@H]1CCCN1c1cc2c(cc1F)c(=O)c(C(=O)O)cn2-c1ccc(O)cc1` [Compound 105, (R)-6-fluoro-1-(4-hydroxy-phenyl)-4-oxo-7-(2-((o-tolyloxy)methyl)pyrrolidin-1-yl)-1,4-dihydro-quinoline-3-carboxylic acid], the negative-log IC50 (pIC50) is 5.00 to 6.00.

In the case of `CC1C[C@H](COc2ncccc2Cl)N(c2cc3c(cc2F)c(=O)c(C(=O)O)cn3-c2ccc(N3CC(N(C)C)C3)nc2)C1` (stereo partly drawn) [Compound 330, 7-[(2R)-2-[[(3-Chloropyridin-2-yl)oxy]methyl]-4-methyl-pyrrolidin-1-yl]-1-[6-[3-(dimethyl-amino)azetidin-1-yl]pyridin-3-yl]-6-fluoro-4-oxoquinoline-3-carboxylic acic], the negative logarithm of the IC50 (pIC50) was not below 6.00.

Take `CN(C)C1CN(c2cnc(-n3cc(C(=O)O)c(=O)c4cc(C#N)c(N5CCC[C@@H]5COc5ncccc5Cl)nc43)cn2)C1` [Compound 280, (R)-7-(2-(((3-chloropyridin-2-yl)oxy)methyl)pyrrolidin-1-yl)-6-cyano-1-(5-(3-(dimethyl-amino)azetidin-1-yl)pyrazin-2-yl)-4-oxo-1,4-dihydro-1,8-naphthyridine-3-carboxylic acid]: the negative logarithm of the IC50 (pIC50) was not below 6.00. In the case of `O=C(O)c1cn(-c2ccc(O)cc2F)c2cc(N3CCC[C@@H]3COc3ccccn3)c(Cl)cc2c1=O` [Compound 95, (R)-6-chloro-1-(2-fluoro-4-hydroxy-phenyl)-4-oxo-7-(2-((pyridin-2-yloxy)methyl)pyrrolidin-1-yl)-1,4-dihydro-quinoline-3-carboxylic acid], the negative logarithm of the IC50 (pIC50) was not below 6.00. Take `CN(C)C1CN(c2ccc(-n3cc(C(=O)O)c(=O)c4cc(F)c(N5C6CC6C[C@@H]5COc5nc6c(ccn6C)cc5Cl)cc43)cn2)C1` (stereo partly drawn) [Compound 334, 7-[(3R)-3-[({5-chloro-1-methylpyrrolo [2,3-b]pyridin-6-yl}oxy)methyl]-2-azabicyclo [3.1.0]hexan-2-yl]-1-{6-[3-(dimethyl-amino)azetidin-1-yl]pyridin-3-yl}-6-fluoro-4-oxoquinoline-3-carboxylic acid]: the pIC50 was not below 6.00. The same measure, in the same setting: the figure for `CN(C)C1CN(c2ccc(-n3cc(C(=O)O)c(=O)c4cc(Cl)c(N5CCC[C@@H]5COc5nc6c(cc5Cl)ncn6C)cc43)cn2)C1` (racemic) [Compound 274, rac-(R)-6-chloro-7-(2-(((6-chloro-3-methyl-3H-imidazo [4,5-b]pyridin-5-yl)oxy)methyl)pyrrolidin-1-yl)-1-(6-(3-(dimethyl-amino)azetidin-1-yl)pyridin-3-yl)-4-oxo-1,4-dihydro-quinoline-3-carboxylic acid] is not below 6.00; for `COCCN(C)C1CN(c2ccc(-n3cc(C(=O)O)c(=O)c4cc(C#N)c(N5CCC[C@@H]5COc5ncccc5Cl)cc43)cn2)C1` [Compound 218, 7-[(2R)-2-[[(3-chloropyridin-2-yl)oxy]methyl]pyrrolidin-1-yl]-6-cyano-1-(6-[3-[(2-methoxyethyl) (methyl)amino]azetidin-1-yl]pyridin-3-yl)-4-oxoquinoline-3-carboxylic acid] it is not below 6.00. `COc1ccc(Cl)c(OC[C@H]2CC(C(C)C)CN2c2cc3c(cc2Cl)c(=O)c(C(=O)O)cn3-c2ccc(N3CC(N(C)C)C3)nc2)n1` (mixture of isomers) [Compound 227, Rac-6-chloro-7-((2R)-2-(((3-chloro-6-(11-oxidaneyl)pyridin-2-yl)oxy)methyl)-4-isopropyl-pyrrolidin-1-yl)-1-(6-(3-(dimethyl-amino)azetidin-1-yl)pyridin-3-yl)-4-oxo-1,4-dihydro-quinoline-3-carboxylic acid]: the negative-log IC50 (pIC50) was not below 6.00.

Consider `Cc1ccc(Cl)c(OC[C@H]2CCCN2c2cc3c(cc2Cl)c(=O)c(C(=O)O)cn3-c2ccc(N3CC(N(C)C)C3)nc2)n1` (racemic) [Compound 187, rac-(R)-6-chloro-7-(2-(((3-chloro-6-methylpyridin-2-yl)oxy)methyl)pyrrolidin-1-yl)-1-(6-(3-(dimethyl-amino)azetidin-1-yl)pyridin-3-yl)-4-oxo-1,4-dihydro-quinoline-3-carboxylic acid], for which the pIC50 was not below 6.00.

Still in this experiment, the particulars now being: Lin28a-dependent Zcchc11 (Z11) TUTase assay; read-out: Potency Lin28a-dep Z11 IC50.
For the compound `COCCN1CCC(n2cc(C(=O)O)c(=O)c3cc(Cl)c(N4CCC[C@@H]4COc4ncccc4Cl)cc32)CC1` [Example 463, (R)-6-chloro-7-(2-(((3-chloropyridin-2-yl)oxy)methyl)pyrrolidin-1-yl)-1-(1-(2-methoxy-ethyl)piperidin-4-yl)-4-oxo-1,4-dihydroquinoline-3-carboxylic acid], the negative logarithm of the IC50 (pIC50) was 5.00 to 6.00. As to `Nc1cc(Cn2cc(C(=O)O)c(=O)c3cc(Cl)c(N4CCC[C@@H]4COc4ncccc4Cl)cc32)ccn1` [Example 589, (R)-1-((2-aminopyridin-4-yl)methyl)-6-chloro-7-(2-(((3-chloropyridin-2-yl)oxy)methyl)pyrrolidin-1-yl)-4-oxo-1,4-dihydroquinoline-3-carboxylic acid], the negative-log IC50 (pIC50) was 5.00 to 6.00. As for `Cc1cccnc1OC[C@H]1CCCN1c1cc2c(cc1Cl)c(=O)c(C(=O)O)cn2C1(C)COC1` [Example 456, (R)-6-chloro-1-(3-methyloxetan-3-yl)-7-(2-(((3-methylpyridin-2-yl)oxy)methyl)pyrrolidin-1-yl)-4-oxo-1,4-dihydroquinoline-3-carboxylic acid], the pIC50 was 5.00 to 6.00.

As for `O=C(O)c1cn(-c2cnccn2)c2cc(N3CCC[C@@H]3COc3ccccn3)c(F)cc2c1=O` [Example 402, (R)-6-fluoro-4-oxo-1-(pyrazin-2-yl)-7-(2-((pyridin-2-yloxy)methyl)pyrrolidin-1-yl)-1,4-dihydroquinoline-3-carboxylic acid], the negative logarithm of the IC50 (pIC50) is 5.00 to 6.00. `O=C(O)c1cn(Cc2cccnc2)c2cc(N3CCC[C@@H]3COc3ncccc3Cl)c(Cl)cc2c1=O` [Example 557, (R)-6-chloro-7-(2-(((3-chloropyridin-2-yl)oxy)methyl)pyrrolidin-1-yl)-4-oxo-1-(pyridin-3-ylmethyl)-1,4-dihydroquinoline-3-carboxylic acid]: the pIC50 is not below 6.00. Turning to `O=C(O)c1cn(-c2nncs2)c2cc(N3CCC[C@@H]3COc3ccccn3)c(F)cc2c1=O` [Example 433, (R)-6-fluoro-4-oxo-7-(2-((pyridin-2-yloxy)methyl)pyrrolidin-1-yl)-1-(1,3,4-thiadiazol-2-yl)-1,4-dihydroquinoline-3-carboxylic acid], the negative-log IC50 (pIC50) is 5.00 to 6.00. Turning to `COc1ccnc(OC[C@H]2C[C@H]3C[C@H]3N2c2cc3c(cc2F)c(=O)c(C(=O)O)cn3-c2ccc(N3CC(N(C)C)C3)nc2)c1F` [Example 686, 1-(6-(3-(dimethylamino)azetidin-1-yl)pyridin-3-yl)-6-fluoro-7-((1R,3R, 5R)-3-(((3-fluoro-4-methoxypyridin-2-yl)oxy)methyl)-2-azabicyclo[3.1.0]hexan-2-yl)-4-oxo-1,4-dihydroquinoline-3-carboxylic acid], the pIC50 was not below 6.00. The same measure, in the same setting: the value for `O=C(O)c1cn(Cc2ccncc2)c2cc(N3CCC[C@@H]3COc3ncccc3Cl)c(Cl)cc2c1=O` [Example 577, (R)-6-chloro-7-(2-(((3-chloropyridin-2-yl)oxy)methyl)pyrrolidin-1-yl)-4-oxo-1-(pyridin-4-ylmethyl)-1,4-dihydroquinoline-3-carboxylic acid] was 5.00 to 6.00.

The pIC50 is the negative decadic logarithm of the IC50, by convention in mol/L.
